Consider one molecule from patent US20100040568A1, “Steroidal compounds as melanogenesis modifiers and uses thereof” (SkinMedica, Inc., priority 2008, published 2010).

One data set deals with MEL-A. Kind of data set: MTT cell viability of treated MelanoDerm tissue. It is filed as cell-based, human. To be noted: 0.036% topical. As for the experimental part:
(§1) Conessine and Licorice extract were dissolved in 30% ethanol: 70% propylene glycol (PEG) to a final concentration of 0.036% (0.36 mg/ml). A 25 μl aliquot of each compound was applied topically to the Asian MelanoDerm™ tissue (MEL-A) on Days 0, 1, 3, 6, 8, 10 and 13. The MelanoDerm™ tissues were fed every other day with 5 ml fresh NMM-113. Prior to each application, the tissues were washed with 1 ml PBS to remove any residual test compound. Tissues were fixed on Days 13 and 16 for microscopic analysis and histological evaluation. In addition, duplicate tissues were frozen on Days 13 and 16 for melanin assay. 30% ethanol: 70% PEG was used as negative control. Cell viability was measured in accordance with the manufacturer's instructions using the MTT assay kit (MatTek Corp., Ashland, Mass. 01721). One MEL-A tissue from each condition was harvested on day 2 and 7, and MTT assay was performed.

In data set [1] the test system is African-American skin equivalent (MEL-B). Kind of data set: MelanoDerm pigmentation assay, African-American skin equivalent. The class given is cell-based, human. As for the experimental part: MelanoDerm™, made by MatTek Corp., is a viable reconstituted three-dimensional human skin equivalent containing normal melanocytes and keratinocytes that are derived from African-American (MEL-B), Asian (MEL-A) or Caucasian (MEL-C) donors. Both MEL-A and MEL-B tissues were used in the current study, and they were maintained in the NMM-113 medium as recommended by the manufacturer.
Conessine (from Sigma) was dissolved in 30% ethanol: 70% propylene glycol to a final concentration of 1.0 mM (equal to 356.6 μg/ml), and this was maintained constant and used on all samples tested. A 25 μl of its aliquot was applied topically to the MelanoDerm™ tissue (MEL-B) on Days 0, 1, 3, 6, 8 and 10. The MelanoDerm™ tissues were fed every other day with 5 ml fresh NMM-113. Prior to each application, the tissues were washed with 1 ml PBS to remove any residual test compound. Tissues were fixed on Days 10 and 13 for microscopic analysis and histological evaluation. In addition, duplicate tissues were frozen on Days 10 and 13 for the melanin assay.
The experiments were repeated twice on both MEL-A and MEL-B tissues from different lots to make sure that the results are reproducible (study 1 or 2). For each experiment, six tissues were treated with conessine, and six were treated with […] (30% ethanol: 70% PEG) or arbutin if applicable. For MEL-B, on day 10, three tissues under each treatment condition were taken out, and one was used for histological studies and the other two were used for the melanin assay. The same protocol was followed with the MEL-B samples after 13 days' treatment and MEL-A after either 13 or 16 days' treatments.
Procedure 1: the effects of conessine on melanin synthesis in MEL-A or B were evaluated by light microscopy (views from the top surface of the tissue). Procedure 2: the distribution of melanin in the treated-MEL-A or B was accessed by image analysis using Fontana-Masson stained histological sections (views from the side of the tissue).
MelanoDerm™, made by MatTek Corp., is a viable reconstituted three-dimensional human skin equivalent containing normal melanocytes and keratinocytes that are derived from African-American (MEL-B), Asian (MEL-A) or Caucasian (MEL-C) donors. It has human skin-like structure and undergoes progressive tissue darkening over the course of 2-3 weeks. MelanoDerm™ provides a useful in vitro means for evaluation of agents that modulate pigmentation. Human skin equivalent models such as MelanoDerm™ provide an alternative to clinical and animal testing for evaluating the effects of putative bioactive compounds on mammalian pigmentation. MelanoDerm™ is considered a more physiologically relevant model than melanocytes alone or melanocyte-keratinocyte co-cultures. Both MEL-A and MEL-B tissues were used in the current study, and they were maintained in the NMM-113 medium as recommended by the manufacturer. In this model, substantial accumulation of newly synthesized melanin occurs over a two to three week period.
as §1, with “performed. Similar experiments were performed on MEL-B.” for “performed.”

In the next data set the target is T1, tyrosinase (Mus musculus, UniProt P11344).
T1 construct: endogenous in cells; host or cells: melan-a cells (murine melanocytes), cell lysate
T1 sequence (P11344 19-533): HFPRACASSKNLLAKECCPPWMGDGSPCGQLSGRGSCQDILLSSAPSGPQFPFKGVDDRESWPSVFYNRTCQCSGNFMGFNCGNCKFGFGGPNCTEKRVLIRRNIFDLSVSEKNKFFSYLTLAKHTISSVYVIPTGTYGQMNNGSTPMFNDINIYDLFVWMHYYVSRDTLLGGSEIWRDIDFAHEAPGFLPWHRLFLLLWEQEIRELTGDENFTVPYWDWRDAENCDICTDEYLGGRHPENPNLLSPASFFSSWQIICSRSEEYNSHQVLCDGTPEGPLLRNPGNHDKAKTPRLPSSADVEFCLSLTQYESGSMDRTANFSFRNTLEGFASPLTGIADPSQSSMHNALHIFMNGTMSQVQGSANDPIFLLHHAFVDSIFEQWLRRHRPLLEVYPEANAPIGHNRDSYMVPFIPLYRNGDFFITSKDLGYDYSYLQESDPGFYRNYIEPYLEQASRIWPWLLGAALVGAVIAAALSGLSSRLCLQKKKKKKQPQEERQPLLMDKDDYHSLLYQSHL
Kind of data set: Tyrosinase activity assay on melan-a cell lysates. As to conditions: for direct inhibition of tyrosinase enzymatic activity: melan-a cell lysates (10 μg) pre-incubated with conessine 10 μM for 30 minutes. It is filed as biochemical, murine. As for the experimental part:
The effect of conessine on tyrosinase activity was studied in vitro using melan-a cell lysates.
In one example, melan-a cell lysates (10 μg) were pre-incubated with either diluent, conessine (10 μM) or phenylthiourea (PTU, 300 μM, a known tyrosinase inhibitor) for 30 minutes at room temperature. Tyrosinase activity assay was performed in triplicate on melan-a cell lysates as previously described (Orlow et al. 1990).

For `CC1C2CCC3C4CC=C5CC(N(C)C)CCC5(C)C4CCC32CN1C` (centres unmarked) [Compound 1, Conessine], the “cytotoxicity of treated tissue” value in the data set with MEL-A is on record as “no detectable cytotoxicity”. For the same molecule, the “decrease of melanin content (Fontana-Masson staining, image analysis)” value in data set [1] (1.0 mM topical, days 10 and 13, compared with control-treated) is listed as 50-60%. In data set [1] (0.036% topical), the “colour by light microscopy” value is given as “considerable decrease in the color of MEL-B”. Also, the “decrease of melanin content (quantitative melanin assay)” value in data set [1] (0.036% topical, 10 or 13 days) is “about 30%”. In addition, the “melanin content compared to the vehicle-treated tissues (Fontana-Masson sections, quantitative analysis)” value in data set [1] (0.036% topical, day 10, 8 sections) is recorded as 73.61%; in data set [1] (0.036% topical, day 13, 8 sections), 62.43%. Further, the “effectiveness as depigmenting agent (comparison)” value in data set [1] (arbutin 3 mg/ml, conessine and licorice 0.36 mg/ml, extract 1:50) is recorded as “more effective than either Licorice extract or arbutin”. Besides, the “melanin content by Fontana-Masson staining” value in data set [1] (conessine 0.36 mg/ml, extract diluted 1:50, 25 μl topical, days 10 and 13) is “decreases significantly”. Moreover, on tyrosinase (cells pre-incubated with conessine for 72 hrs before harvesting), the “tyrosinase activity of lysates of pre-treated cells” value is on record as “No obvious difference in tyrosinase activity”. Besides, the “direct inhibition of tyrosinase enzymatic activity” value is reported as “did not directly inhibit tyrosinase activity” on tyrosinase (listed as Conessine) and “does not directly inhibit tyrosinase enzymatic activity” at tyrosinase (listed as conessine).
